From patent publication US20110052503A1, “BIODEGRADABLE CONTRAST AGENTS” (IOPHARMA TECHNOLOGIES AB, priority 2007, published 2011)

Test: Stability of iohexyl hexa-acetate in human plasma
Details: iohexyl formed from 300 μM IHA in citrated plasma, 37° C., FIG. 1
Method: A stock solution of iohexyl hexa-acetate was prepared by adding 100 mg IHA to a 100 ml volumetric flask, followed by 1.0 ml DMSO and deionised water to 100 ml, giving a final concentration of 1.0 mg/ml. The plasma solution was prepared by adding 1.61 ml of the IHA stock solution to 3.39 ml of citrated bovine plasma, giving a final concentration of 300 μM. The citrated human plasma was incubated at 37° C., and 0.25 ml plasma removed at 1, 2, 3, 4, 6, 8, 24, 30 and 48 h. Proteins were discarded from the samples by centrifugal filtration and the resulting filtrates analyzed by HPLC.

Compound: CC(=O)N(CC(O)CO)c1c(I)c(C(=O)NCC(O)CO)c(I)c(C(=O)NCC(O)CO)c1I (centres unmarked) [iohexyl]
- concentration of iohexyl in plasma, first 8 h (first 8 h): constant
- concentration of iohexyl in plasma, 8 to 48 h (from 8 to 48 h): increases dramatically
